According to the NIST ThermoML archive (doi:10.1021/je700022b):

Settings: Liquid; for viscosity: Falling or rolling sphere viscometry; for mass density: Constant-volume piezometry

CCCCn1cc[n+](C)c1.F[P-](F)(F)(F)(F)F [1-butyl-3-methylimidazolium hexafluorophosphate]
Settings | mass density, 293.15 K [kg/m3] | mass density, 313.15 K [kg/m3] | mass density, 333.15 K [kg/m3] | mass density, 353.15 K [kg/m3] | viscosity, 293.15 K [mPa·s] | viscosity, 313.15 K [mPa·s] | viscosity, 333.15 K [mPa·s] | viscosity, 353.15 K [mPa·s]
100 kPa | – | – | – | – | 395 | – | – | –
15000 kPa | 1377 | 1362 | 1346 | 1330 | 468 | 140 | 61 | 29.3
20000 kPa | 1379 | 1364 | 1349 | 1332 | 504 | 151 | 63.2 | 30.5
